Laboratory results from patent EP2272817A1, “PAI-1 INHIBITOR” (Institute of Medicinal Molecular Design, Inc., priority 2008, dated 2009).
pIC50: −log10 of the molar value.

Biological target: recombinant human PAI-1 (Homo sapiens, UniProt P05121)
Experiment: Test Example 2: Human PAI-1 Inhibitory Activity (pH 7.4 HEPES buffer, 10 minutes incubation with two-chain tPA)
Type: biochemical
Set-up: purchased Molecular Innovations, Inc
Conditions: for inhibition at 0.1 µM / inhibition at 0.3 µM / inhibition at 1 µM / inhibition at 3 µM: read-out: Inhibition Rate of PAI-1 Activity (%)
Procedure: 0.1 M HEPES, 0.1 M NaCl. 1 mM EDTA. 0.1 % Polyethylene glycol 8,000 (Hampton Research Corporation),
2 mM Dimethyldecylphoshine oxide [Apo-10] (Fluka Corporation)

Chain of recombinant human PAI-1 (P05121 24-402): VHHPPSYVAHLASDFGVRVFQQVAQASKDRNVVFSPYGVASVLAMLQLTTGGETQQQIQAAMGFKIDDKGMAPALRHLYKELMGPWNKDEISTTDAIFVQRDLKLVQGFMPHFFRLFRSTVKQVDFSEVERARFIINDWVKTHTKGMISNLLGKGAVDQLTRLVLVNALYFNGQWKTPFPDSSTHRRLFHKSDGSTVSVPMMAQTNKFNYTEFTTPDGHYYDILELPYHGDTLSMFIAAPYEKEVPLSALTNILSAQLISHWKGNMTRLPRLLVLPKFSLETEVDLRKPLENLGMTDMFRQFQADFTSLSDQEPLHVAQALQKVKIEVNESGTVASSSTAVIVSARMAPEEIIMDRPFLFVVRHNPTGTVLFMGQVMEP

SMILES	inhibition at 0.1 µM [%]	inhibition at 0.3 µM [%]	inhibition at 1 µM [%]	inhibition at 3 µM [%]	pIC50 (human PAI-1, calculated from the inhibition rates)
CCCCCOc1cc(-c2ccc(OC(F)(F)F)cc2)cc(OCc2ccc(C(C)(C)C)cc2)c1OCC(=O)O [Compound 301]	15	25	96	97	
CC(C)(C)c1ccc(Oc2ccc(-c3ccc(OC(F)(F)F)cc3)cc2OCC(=O)O)cc1 [Compound 302]	0	9	27	98	
CCCCC(Oc1cc(-c2ccc(OC(F)(F)F)cc2)ccc1Oc1ccc(C(C)(C)C)cc1)C(=O)O (stereo not shown) [Compound 303]	0	13	87	94	
CC(C)(C)c1ccc(COc2cc(-c3ccc(OC(F)(F)F)cc3)ccc2OCC(=O)O)cc1 [Compound 304]	3	1	23	99	
CCCCC(Oc1ccc(-c2ccc(OC(F)(F)F)cc2)cc1Oc1ccc(C(C)(C)C)cc1)C(=O)O (stereo not shown) [Compound 305]	6	9	54	88	
CCCCC(Oc1cc(-c2ccc(OC(F)(F)F)cc2)ccc1OCCCCc1ccccc1)C(=O)O (stereo not shown) [Compound 306]	0	0	72	97	
CCCCC(Oc1cc(-c2ccc(OC(F)(F)F)cc2)ccc1Oc1ccccc1)C(=O)O (stereo not shown) [Compound 307]	0	1	22	91	
CCCCC(Oc1cc(Oc2ccc(OC(F)(F)F)cc2)ccc1OCc1ccc(C(C)(C)C)cc1)C(=O)O (stereo not shown) [Compound 308]	0	22	63	95	
CCCCC(Oc1cc(Oc2ccc(OC(F)(F)F)cc2)ccc1OCCCCc1ccccc1)C(=O)O (stereo not shown) [Compound 309]	1	17	66	91	
CCCCC(Oc1ccc(-c2ccc(OC(F)(F)F)cc2)cc1OCc1ccc(C(C)(C)C)cc1)C(=O)O (stereo not shown) [Compound 310]	11	19	72	96	
CCCCC(Oc1ccc(-c2ccc(OC(F)(F)F)cc2)cc1OCCCCc1ccccc1)C(=O)O (stereo not shown) [Compound 311]	0	11	77	97	
CCCCC(Oc1cc(Oc2ccc(OC(F)(F)F)cc2)ccc1Oc1ccc(C(C)(C)C)cc1)C(=O)O (stereo not shown) [Compound 312]	17	24	87	94	
CCCCC(Oc1cc(-c2ccc(OC(F)(F)F)cc2)ccc1OCc1ccc(C(C)(C)C)cc1)C(=O)O (stereo not shown) [Compound 313]	1	3	52	93	
CC(C)(C)c1ccc(Oc2ccc(-c3cccc(C(F)(F)F)c3)cc2OCC(=O)O)cc1 [Compound 314]	0	5	22	93	
CC(C)(C)c1ccc(Oc2cc(-c3cccc(C(F)(F)F)c3)ccc2OCC(=O)O)cc1 [Compound 315]	13	16	60	> 99	
Cc1cccc(-c2ccc(Oc3ccc(C(C)(C)C)cc3)c(OCC(=O)O)c2)c1 [Compound 316]	10	8	28	84	
CCCCC(Oc1cc(-c2cccc(C)c2)ccc1Oc1ccc(C(C)(C)C)cc1)C(=O)O (stereo not shown) [Compound 317]	14	16	79	94	
CCCCC(Oc1cc(-c2cccc(C(F)(F)F)c2)ccc1Oc1ccc(C(C)(C)C)cc1)C(=O)O (stereo not shown) [Compound 318]	8	20	90	> 99	
Cc1cccc(-c2ccc(OCC(=O)O)c(Oc3ccc(C(C)(C)C)cc3)c2)c1 [Compound 319]	0	9	17	70	
CCCCC(Oc1ccc(-c2cccc(C(F)(F)F)c2)cc1Oc1ccc(C(C)(C)C)cc1)C(=O)O (stereo not shown) [Compound 320]	1	9	70	98	
CCCCC(Oc1ccc(-c2cccc(C)c2)cc1Oc1ccc(C(C)(C)C)cc1)C(=O)O (stereo not shown) [Compound 321]	3	15	86	94	

SMILES	inhibition at 0.1 µM [%]	inhibition at 0.3 µM [%]	inhibition at 1 µM [%]	inhibition at 3 µM [%]	pIC50 (human PAI-1, calculated from the inhibition rates)
CCCCCCC(Oc1cc(-c2ccc(OC(F)(F)F)cc2)ccc1Oc1ccccc1)C(=O)O (stereo not shown) [Compound 322]	0	4	69	92	
CCCCCCC(Oc1cc(-c2ccc(OC(F)(F)F)cc2)ccc1Oc1ccc(C(C)(C)C)cc1)C(=O)O (stereo not shown) [Compound 323]	19	16	91	82	
CCCCC(Oc1cc(-c2ccc(OC(F)(F)F)cc2)ccc1OCCCCc1ccc(F)cc1)C(=O)O (stereo not shown) [Compound 324]	0	1	66	97	
CCCCC(Oc1cc(-c2ccc(OC(F)(F)F)cc2)ccc1OCCCCc1ccc(Cl)cc1)C(=O)O (stereo not shown) [Compound 325]	11	5	85	91	
CCCCCCC(Oc1cc(-c2ccc(OC(F)(F)F)cc2)ccc1Oc1ccc(OC(F)(F)F)cc1)C(=O)O (stereo not shown) [Compound 326]	0	28	94	94	
CCCCCCC(Oc1cc(-c2ccc(OC(F)(F)F)cc2)ccc1Oc1ccc(C(F)(F)F)cc1)C(=O)O (stereo not shown) [Compound 327]	0	15	94	95	
CC(C)(C)c1ccc(Oc2ccc(-c3ccc(C(F)(F)F)cc3)cc2OCC(=O)O)cc1 [Compound 328]	0	14	30	> 99	5.84
CC(C)(C)c1ccc(Oc2ccc(-c3cccc(OC(F)(F)F)c3)cc2OCC(=O)O)cc1 [Compound 329]	6	11	28	98	
CC(C)(C)c1ccc(Oc2cc(-c3ccc(C(F)(F)F)cc3)ccc2OCC(=O)O)cc1 [Compound 330]	0	1	47	96	
CC(C)(C)c1ccc(Oc2cc(-c3cccc(OC(F)(F)F)c3)ccc2OCC(=O)O)cc1 [Compound 331]	2	1	83	98	
CC(C)(C)c1ccc(Oc2cc(-c3cccc(C(F)(F)F)c3)ccc2CCC(=O)O)cc1 [Compound 332]	12	4	29	> 99	
CC(C)c1ccc(Oc2cc(-c3ccc(OC(F)(F)F)cc3)ccc2OCC(=O)O)cc1 [Compound 333]	4	10	28	91	
CC(C)(C)c1ccc(Oc2cc(-c3ccc(OC(F)(F)F)cc3)ccc2CC(=O)O)cc1 [Compound 334]	0	1	21	87	
CC(C)(C)c1cccc(Oc2cc(-c3ccc(OC(F)(F)F)cc3)ccc2/C=C/C(=O)O)c1 [Compound 335]	4	8	80	> 99	
CC(C)(C)c1cccc(Oc2cc(-c3ccc(OC(F)(F)F)cc3)ccc2CCC(=O)O)c1 [Compound 336]	0	5	45	> 99	
O=C(O)COc1ccc(-c2ccc(OC(F)(F)F)cc2)cc1OCCCCc1ccccc1 [Compound 337]	2	8	19	97	
CC(C)(C)OCCOc1ccc(-c2ccc(OC(F)(F)F)cc2)cc1N(CCCCc1ccccc1)C(=O)C(=O)O [Compound 351]	2	7	23	84	
CCCCCCCOc1ccc(-c2ccc(OC(F)(F)F)cc2)cc1N(CCCCc1ccccc1)C(=O)C(=O)O [Compound 352]	0	4	72	90	
CCCCCCCCOc1ccc(-c2ccc(OC(F)(F)F)cc2)cc1N(CCCCc1ccccc1)C(=O)C(=O)O [Compound 353]	6	19	87	87	
O=C(O)C(=O)N(CCCCc1ccccc1)c1cc(-c2ccc(OC(F)(F)F)cc2)ccc1OCCCCc1ccccc1 [Compound 354]	5	10	91	89	
O=C(O)C(=O)N(CCCCc1ccccc1)c1cc(-c2ccc(OC(F)(F)F)cc2)ccc1OCCCC1CCCC1 [Compound 355]	2	3	91	86	
